Each compound was assayed against T1, CepR (Burkholderia cenocepacia, UniProt B4EMD0) (assay: CepR antagonism in E. coli β-galactosidase reporter (Ec-reporter), competition against C8-AHL). Settings: Ec-reporter.
T1 sequence (B4EMD0 1-239): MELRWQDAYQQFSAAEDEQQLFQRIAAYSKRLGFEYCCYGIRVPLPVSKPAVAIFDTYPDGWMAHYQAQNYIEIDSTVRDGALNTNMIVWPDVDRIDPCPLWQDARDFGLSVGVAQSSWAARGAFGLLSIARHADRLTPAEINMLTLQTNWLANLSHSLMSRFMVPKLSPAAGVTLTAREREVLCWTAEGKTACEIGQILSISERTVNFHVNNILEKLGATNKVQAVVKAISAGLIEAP
Format: cell-based, B. cenocepacia
From the text: (§1) We began our study by screening the AHL library for CepR modulators using an E. coli-based two plasmid reporter system (Ec-reporter)[38]–[40]. Certain members of the Bcc harbor additional QS systems that are either AHL-based (e.g., BviI/BviR in B. vietnamiensis)[41] or diffusible signal factor (DSF)-based (B. cenocepacia)[42], and at least one member of the Bcc has multiple receptors that respond to C8-AHL (e.g., CepR and CepR2 in B. cenocepacia)[43]. Thus, we reasoned that using a CepR reporter in a heterologous background could simplify our initial analyses. We modified our previously reported E. coli-based two plasmid β-galactosidase reporter system to develop a CepR Ec-reporter (see Methods). The first plasmid, pJN105-cepR, contains CepR from B. cenocepacia under the control of the L-arabinose inducible pBAD promoter. A second plasmid contains a transcriptional fusion of lacZ to the cepI promoter region. The two plasmids were co-transformed into a QS mutant E. coli strain (JLD271 ∆sdiA) that lacks its LuxR-type receptor, SdiA. Using this reporter system, if an exogenously -added compound is able to interact with CepR, this will affect the protein’s interaction with the cepI promoter region and alter β-galactosidase production. Enzyme production, and thereby CepR activity, is then measurable via the degradation of a colorimetric substrate for β-galactosidase. Using this new Ec-reporter, we observed robust activity of CepR in response to its native ligand C8-AHL, with an EC50 of 5 nM (Table 1).
To identify antagonists of CepR, we screened the AHL library (at 100 μM) in competition against the native ligand C8-AHL (at approximately twice its EC50 value, 0.01 μM) in the Ec-reporter. […] The active compounds were subjected to dose-response analyses in the Ec-reporter to obtain IC50 values and assess their relative potencies (Table 2; see Table S3 for complete screening data and Fig. S3 for dose-response curves). One general trend that we noted at the outset was the majority of the antagonists had acyl tails of similar or shorter overall length than CepR’s native ligand, C8-AHL. From this set, the strongest antagonists could be divided into two classes: (i) “short alkyl tail” AHLs or analogs thereof, and (ii) phenylacetanoyl HLs (PHLs). The discovery that the latter compounds were CepR antagonists was perhaps not surprising, as we have found substituted PHLs to strongly antagonize the majority of the LuxR-type receptors studied in our laboratory to date[22],[24],[29],[45],[46].
(§2) E. coli β-galactosidase reporter assays (derived from ref.[63]) and reagents used to obtain primary screening and dose-response data were performed as previously described[22],[60],[64], with the following modifications: E. coli JLD271 (∆sdiA) was co-transformed iteratively with pSC11-cepI and pJN105-cepR via electroporation. A single colony was used to start overnight cultures in LB medium + ampicillin (100 μg/mL) + gentamicin (15 μg/mL). A 1:10 dilution of overnight culture was grown in fresh medium to OD600 = 0.25. A sterile solution of L-arabinose in water (27 mM final concentration) was added to induce protein expression, after which cells were plated in 96-well plates containing varying concentrations of compound (200 μL total volume).
(§3) Cells were grown for 4 h, OD600 was read, 50 μL aliquots from each well were permeabilized in 200 μL Z Buffer, and then 150 μL of this mixture used to measure the cleavage of 25 μL of 4 mg/mL CPRG in phosphate buffered saline (PBS) at 37 °C until positive control wells developed a deep red color (~30 min). For all agonism assays, synthetic compound (100 μM) was screened alongside and compared to the native ligand, C8-AHL (100 μM). For all primary and dose-response antagonism assays, the concentration of native ligand utilized was 10 nM (approximately equal to twice its EC50 value). […] At least 3 separate trials were performed using unique cultures on separate days.

For O=C(Cc1ccccc1)N[C@H]1CCOC1=O [Compound C1], the “CepR antagonism in words” value was “inactive”.
O=C(Cc1ccc(F)cc1)N[C@H]1CCOC1=O [Compound C2] was tested, and the “CepR antagonism in words” value was “inactive as antagonists”.
In the case of O=C(Cc1cccc(F)c1)N[C@H]1CCOC1=O [Compound C3], the “CepR antagonism in words” value is reported as “inactive as antagonists”.
With O=C(Cc1ccccc1F)N[C@H]1CCOC1=O [Compound C4] the “CepR antagonism in words” value was “inactive as antagonists”.

Same assay, conditions: Ec-reporter; against 10 nM C8-AHL

For O=C(Cc1ccccc1)N[C@H]1CCOC1=O [Compound C1], the “Maximal Inhibition (%)” value was 8%.

Same assay, conditions: Table S3, Ec-reporter; screening conc. 25 μM

For CCCCCCCCCCCCCCCC(=O)N[C@H]1CCOC1=O [Compound C16-AHL, hexadecanoyl L-homoserine lactone, reference compound], the “Inh% (100-Act%)” value was -10%.

Same assay, conditions: Table S3, Ec-reporter; screening conc. 100 μM; against 10 nM C8-AHL

In order of falling “Inh% (100-Act%)” value:
1. O=C(Cc1cccc(F)c1)N[C@H]1CCOC1=O [Compound C3]  20%
2. CCCCCCCCS(=O)(=O)N[C@H]1CCOC1=O [Compound A13]  17%
3. CCCCCCCCCC(=O)CC(=O)Nc1ccccc1 [3’O-C12-analine, reference compound]  16%
4. CCCC(=O)CC(=O)NC1CCSC1=O (stereo not drawn) [3’O-C6-TL]  4.0%
5. O=C(Cc1ccc(F)cc1)N[C@H]1CCOC1=O [Compound C2]  4.0%
6. O=C(Cc1ccccc1F)N[C@H]1CCOC1=O [Compound C4]  3.0%
7. CCCCCCCCCC(O)CC(=O)N[C@H]1CCOC1=O (stereo partly drawn) [3’OH-C12-AHL, reference compound]  0.0%
8. O=C(Cc1ccc(Br)cc1)N[C@@H]1CCOC1=O [Compound B4]  0.0%
9. CCCCCC(=O)CC(=O)NC1CCSC1=O (stereo not drawn) [3’O-C8-TL]  -20%
10. O=C(CCCc1ccccc1)N[C@@H]1CCOC1=O [Compound B3]  -30%
11. CCCCCCCCCCCC(O)CC(=O)N[C@@H]1CCOC1=O (stereo partly drawn) [3’OH-C14-AHL, reference compound]  -40%
12. CCCCCCCCCCCCCC(=O)CC(=O)NC1CCOC1=O (stereo not drawn) [3’O-C16-AHL, reference compound]  -50%
13. CCCCCCCCCCCCCC(O)CC(=O)NC1CCOC1=O (stereo not drawn) [3’OH-C16-AHL, reference compound]  -50%
14. CCCCCCCC(=O)CC(=O)N[C@H]1CCOC1=O [3’O-C10-AHL, reference compound]  -60%

The compounds below were run against T1, CepR (assay: CepR agonism in E. coli β-galactosidase reporter (Ec-reporter) JLD271 [pJN105-cepR + pSC11-cepI]). Settings: Ec-reporter.
Format: cell-based, B. cenocepacia
From the text: as §1
We used the CepR Ec-reporter to perform a primary agonism screen at a single compound concentration (100 μM, or its solubility limit, indicated in Table S1). Thirty-one compounds displaying ≥70% agonistic activity in CepR (relative to C8-AHL) were identified and subjected to dose-response analyses using the Ec-reporter (Table I; see Table S2 for complete screening data and Fig. S3 for dose-response curves).
as §2, §3

In the case of CCCCCCCCS(=O)(=O)N[C@H]1CCOC1=O [Compound A13], the “CepR agonism in words” value is reported as “failed to activate CepR”.
In the case of CCCCCCCCCCCCCCCC(=O)N[C@H]1CCOC1=O [Compound C16-AHL, hexadecanoyl L-homoserine lactone, reference compound], the “CepR agonism in words” value is reported as “inactive”.

Same assay, conditions: Ec-reporter, agonism dose-response

In the case of CCCCCCCCS(=O)(=O)N[C@H]1CCOC1=O [Compound A13], the EC50 is reported as 0.15 µM.

Same assay, conditions: Ec-reporter; activity for 100 μM C8-AHL set to 100%; error ±10%

In order of falling “Maximal Activation (%)” value:
1. CCCCCCCCS(=O)(=O)N[C@H]1CCOC1=O [Compound A13]  110%
2. CCCCCCCCCCCCCCCC(=O)N[C@H]1CCOC1=O [Compound C16-AHL, hexadecanoyl L-homoserine lactone, reference compound]  35%

Same assay, conditions: Table S2, Ec-reporter

For CCCCCCCC(=O)CC(=O)N[C@H]1CCOC1=O [3’O-C10-AHL, reference compound], the EC50 was 2.3 µM.

Same assay, conditions: Table S2, Ec-reporter; screening conc. 25 μM

In the case of CCCCCCCCCCCCCCCC(=O)N[C@H]1CCOC1=O [Compound C16-AHL, hexadecanoyl L-homoserine lactone, reference compound], the Act% is reported as 35%.

Same assay, conditions: Table S2, Ec-reporter; screening conc. 100 μM

In order of rising Act%:
1. O=C(Cc1ccc(Br)cc1)N[C@@H]1CCOC1=O [Compound B4]  -0.5%
2. O=C(CCCc1ccccc1)N[C@@H]1CCOC1=O [Compound B3]  -0.4%
3. O=C(Cc1ccccc1)N[C@H]1CCOC1=O [Compound C1]  0.0%
4. O=C(Cc1ccc(F)cc1)N[C@H]1CCOC1=O [Compound C2]  0.1%
5. O=C(Cc1ccccc1F)N[C@H]1CCOC1=O [Compound C4]  0.1%
6. O=C(Cc1cccc(F)c1)N[C@H]1CCOC1=O [Compound C3]  0.2%
7. CCCC(=O)CC(=O)NC1CCSC1=O (stereo not drawn) [3’O-C6-TL]  1.6%
8. CCCCCCCCCCCCCC(O)CC(=O)NC1CCOC1=O (stereo not drawn) [3’OH-C16-AHL, reference compound]  8.0%
9. CCCCCCCCCCCCCC(=O)CC(=O)NC1CCOC1=O (stereo not drawn) [3’O-C16-AHL, reference compound]  8.3%
10. CCCCCCCCCCCC(O)CC(=O)N[C@@H]1CCOC1=O (stereo partly drawn) [3’OH-C14-AHL, reference compound]  33%
11. CCCCCCCCCC(=O)CC(=O)Nc1ccccc1 [3’O-C12-analine, reference compound]  52%
12. CCCCCCCCCC(O)CC(=O)N[C@H]1CCOC1=O (stereo partly drawn) [3’OH-C12-AHL, reference compound]  52%
13. CCCCCC(=O)CC(=O)NC1CCSC1=O (stereo not drawn) [3’O-C8-TL]  61%
14. CCCCCCCCS(=O)(=O)N[C@H]1CCOC1=O [Compound A13]  108%
15. CCCCCCCC(=O)CC(=O)N[C@H]1CCOC1=O [3’O-C10-AHL, reference compound]  110%
